This note sets out measurements from patent US8299096B2, “Method for treating pulmonary diseases using rho kinase inhibitor compounds” (priority 2008, dated 2012).

Data set [1] concerns ovalbumin-sensitized mice. Nature of the data set: Bronchodilator assay in ovalbumin-sensitized mouse model of asthma (Penh). The class given is in vivo. Conditions: oral doses. As to the method:
Male BALB/c mice were ordered from Charles River Laboratories (Raleigh, N.C.). The animals were approximately 19 to 21 grams at time of receipt. Upon arrival, the animals were randomized into groups of five males per cage and assigned to a dosing group. Animals were quarantined for 7 days under test conditions. They were observed daily for general health status and ability to adapt to the water bottles.
Animals were sensitized on day 0 and 14 of study by an intraperitoneal injection with 20 μg of ovalbumin (ova) and 2.0 mg aluminum hydroxide (alum) which initiates the development of a specific T-helper (Th) cells type 2 resulting in asthmatic animals. One group of animals received an injection of saline to use as non-asthmatic control animals. All animals were challenged with aerosolized 1% ova once daily for 25 minutes on days 28, 29, and 30 (Zosky, et al. Respiratory Research, 2004; 5:15). Aerosol challenge consists of using an Aerogen Aeroneb nebulizer and controller with a particle size of 4-6 μm mass median aerodynamic diameter (MMAD) with a distribution of 400 μl per minute. This aerosol challenge is necessary to target the Th2-driven allergic inflammation in the lower airways.
The test compounds and the control vehicle were administered to animals on the day of airway hyperreactivity evaluation 30 minutes to 1 hour before the evaluation to determine the bronchodilator effects of the compounds according to the bronchodilator dosing paradigm (FIG. 3A). Compounds were administered p.o. (orally), i.p. (intraperitoneally) at 15 μMol/kg unless otherwise noted (Table 4). Alternatively, compounds were administered i.t. (intratracheally) at varying doses as shown (FIG. 3B). On day 32 of the experiment, airway hyperreactivity was evaluated by placing conscious, unrestrained animals in a whole body plethysmometer (Buxco Wilmington, N.C.) and exposing them to escalating doses of nebulized methacholine, a known bronchial constrictor which acts through the muscarinic receptors of the lungs, (doses: […]-50 mg/ml). Exposure to the methacholine doses consisted of a 3 minute period during which a nebulizer was aerosolizing the methacholine and an additional 3 minute period following the cessation of nebulization. Over this 6 minute period, the plethysmometer monitors and generates numerical values for all parameters of the breath pattern. Enhanced pause (Penh), a unitless index of airway hyperreactivity, is derived from the expiratory side of the respiratory waveform measured via the plethysmograph and is used as an indirect measure of airway resistance and hyperreactivity. […] Following the methacholine dose response, all animals were anesthetized, bled and euthanized.
Within each experiment, a mouse was given a single compound and exposed to increasing doses of methacholine [0 (baseline), 0.375, 0.75, 1.5, 3, 6, 12, 25, 50 mg/ml]. The Penh value at each of the dose levels of methacholine represents the 6-minute average response. Change from baseline (CFB) in Penh was calculated at each methacholine dose and the area under the curve (AUC) for these CFB values was calculated using the trapezoidal rule. This same approach was applied for each mouse across multiple experiments.
For statistical analyses, a linear mixed-effects model where the response was the log 10 transformed value of AUC described above was used. Data from equal experimental conditions across experiments performed on different days were pooled for statistical analysis and data reporting. The various compounds were compared adjusting for the log 10-transformed baseline value of Penh and the chamber (1 of 10) of the plethysmometer each mouse was contained in during an experiment. A random intercept for each experiment was assumed to account for possible similarities of the results obtained from a given experiment (i.e., as a “blocking effect”).
For Table 4 and Table 5, Penh values are reported as log 10 transformed AUC values. […]

Data set [2] relates to ovalbumin-sensitized mice. Nature of the data set: Prevention of airway hyperreactivity development, anti-inflammatory dosing paradigm (Penh). The class given is in vivo, mouse. Conditions: oral, 15 μMol/kg once a day during days 27 to 31.
In another data set the test system is murine eosinophils. Kind of data set: Murine eosinophil chemotaxis (eotaxin-induced). The class given is cell-based, mouse. The following applies: 10 nM eotaxin, one hour. As to the method:
Mouse Eosinophil Isolation: Bronchoalveolar lavage was collected from ovalbumin sensitized and challenged mice in a volume of 2.5 mL lavage buffer. The lavage buffer was 0.9% saline with 10% fetal bovine serum. The pooled lavages were maintained on ice until use. The murine eosinophils were isolated using MACS cell separation (Miltenyi Biotech) by depletion of B cells and T cells by positive selection following incubation with antibody conjugated magnetic beads specific for CD45-R (B220) and CD90 (Thy 1.2), which bind B cells and T cells, respectively.
In Vitro Chemotaxis: Eosinophil chemotaxis was assessed using a modified Boyden Chamber (Neuroprobe, 96-well) with a 5 μm pore membrane. The ability of the tested compounds to block chemotaxis induced by a 10 nM eotaxin challenge (mouse) or 1 nM eotaxin challenge (human) during one hour incubation at 37° C. with 5% CO2 was assessed. Chemotaxis was quantified via microscopy by counting the number of migrated cells in at least 3 view fields per treatment.

Another data set deals with human eosinophils. Nature of the data set: Human eosinophil chemotaxis (eotaxin-induced). It is filed as cell-based. Conditions: 1 nM eotaxin, one hour. The text has this:
Human Eosinophil Isolation: Peripheral blood from healthy human volunteers was collected and the PMNs separated via Ficoll-paque density centrifugation followed by hypotonic lysis of the red blood cells. Subsequently, the human eosinophils were isolated from the cell suspension via StemCell Technologies Human Eosinophil Enrichment kit (Cat. No 19256) according to the manufacturer's recommendations. Briefly, unwanted cells were specifically labeled with dextran-coated magnetic nanoparticles using bispecific Tetrameric Antibody Complexes (TAC) directed against cell surface antigens on human blood cells: […] The unwanted cells are then separated from the unlabelled eosinophils using the EasySep® magnetic isolation procedure. In Vitro Chemotaxis: […]

Data set [3] has as its system ovalbumin-sensitized mice. Kind of data set: Anti-inflammatory assay in ovalbumin-sensitized mouse model of asthma (BALF cells and cytokines). The class given is in vivo. The text has this:
Mouse model of asthma via ovalbumin sensitization was created as described in Example 5. The anti-inflammatory dosing paradigm (FIG. 4) was utilized to evaluate the anti-inflammatory effects of experimental compounds. The anti-inflammatory dosing paradigm consists of dosing the animals once a day starting on day 27 and finishing on either day 30 or 31 (1 hr prior to the aerosolized ovalbumin challenges on days 28 to 30) but not on day 32 when hyper-reactivity evaluation occurs.
Bronchoalveolar lavage fluid (BALF) was collected by infusing 3.0 ml of saline with 10% fetal calf serum into the lungs via the trachea and then withdrawing the fluid. The total amount of cells/ml of BALF fluid was determined via manual cell count on hemocytometer. The BALF was centrifuged, supernatant removed and analyzed for cytokine concentrations as described below, and cell pellet reconstituted in 500 μL of fluid. Cytospin slides were prepared from the cell pellet using 100 μL of fluid and spinning samples for 5 minutes at 5000 rpms in a cytospin centrifuge. Following Hema3 stain, relative percentages of individual leukocytes were determined on a 200 cell count for each sample. The final concentration of individual leukocyte cell types per ml of BALF was determined by multiplication of the relative percentage of individual leukocytes with the total amount of cells/ml of BALF fluid.
The concentrations of cytokines in the BALF samples were determined using commercially available Bio-plex kits (Bio-Rad) for the detection of mouse IL-5, IL-13, and Eotaxin. The analysis of cytokine levels was measured using the Bio-Plex 200 (Bio-Rad) system according to the manufacturer's instructions.

A short description of data set [4]: Compound plasma concentrations in mice at 15 min post administration. It is filed as in vivo, mouse. The following applies: mouse plasma, 15 minutes, oral.
Procedure: Additionally, compound concentrations were determined in the plasma and lungs of male, ovalbumin-sensitized, Balb/c mice from a murine model of asthma. Test compounds were formulated in water or 1% polysorbate 80 and dosed at 15 μmol/kg for intraperitoneal (IP) or oral (PO) administration or formulated for intratracheal (IT) administration and dosed at 5 μmol/kg, which directly targets the lungs. Following completion of the in vivo study, mice were euthanized and blood and plasma collected approximately 2.5-3 hours post administration of test compound for bronchodialator (BD) studies and 24 hours post administration for anti-inflamatory (AI) studies. Lungs were homogenized in Matrix A lysing tubes using a FastPrep 24 tissue and cell homogenizer (MP Biomedicals, Solon, Ohio). Both plasma samples and lung extracts were assayed for compound concentrations using an on-line, solid phase extraction LC/MS/MS system.
For the next data set, the system named is rat aorta. Nature of the data set: Aortal relaxation assay, norepinephrine precontracted. Conditions: 100 nM norepinephrine, 100 μM compound. As to the method:
The effects of compounds to induce relaxation of pre-contracted rat pulmonary artery and rat aorta were determined. Male Sprague-Dawley rats weighing 301-325 gm were sacrificed by asphyxiation in a CO2 chamber. Pulmonary artery or aorta were excised, cleaned of connective tissue and cut into cylindrical segments of 2-3 mm length. The preparations were mounted in a tissue bath by tying two threads of surgical silk through the lumen of the vessel. One silk was used to anchor the tissue to a metal wire in the bath and the other silk was connected to a force transducer. Preparations were mounted in 5 ml water-jacketed organ baths (Radnoti Glass Technology) filled with Krebs buffer (95 mM NaCl, 5 mM KCl, 2.6 mM CaCl2, 1.2 mM MgSO4, 24.9 mM NaHCO3, 1.2 mM KH2PO4, 10 mM glucose) maintained at 37° C. and gassed with 95% O2 and 5% CO2. Contractile tensions were measured using an isometric force transducer (Grass Instruments) and signals were analyzed using specialized software (Chart v5.5, ADInstruments). […] For pulmonary artery, compounds were added cumulatively to the bath every 30 minutes and reductions in tension were recorded. […] For aorta, a single dose of compound was added and reductions in tension were recorded.

The test system of the next data set is rat tracheal rings. Kind of data set: Tracheal relaxation assay, carbachol precontracted rings. Conditions: Rattus norvegicus, read-out: IC50 Avg, tracheal ring relaxation.
A further data set relates to human neutrophils. Nature of the data set: Human neutrophil chemotaxis (fMLP-induced). It is filed as cell-based. Conditions: 1 h, read-out: Chemotaxis Avg IC50.
Where [5] appears, read: 15 μmol/kg/oral on days 27 to 31.

In general, IC50 refers to the midpoint of a concentration-inhibition curve.

Procedure for human neutrophils: Peripheral blood from healthy human volunteers was collected and the neutrophils were isolated by Ficoll-paque density centrifugation followed by dextran sedimentation and hypotonic lysis of the red blood cells. Neutrophil chemotaxis was assessed using a modified Boyden Chamber (Neuroprobe, 96-well) with a 3 μm pore polycarbonate membrane. The ability of the tested compounds to block chemotaxis induced by a 1 μM fMLP challenge during a one hour incubation at 37° C. with 5% CO2 was assessed in a dose response manner.
Procedure for rat tracheal rings: Trachea were excised, cleaned of connective tissue and cut into cylindrical segments of 2-3 mm length. Two stainless steel wires were guided through the lumen of the tracheal ring. One wire was fixed in the tissue bath and the other was connected to a force transducer via surgical silk. […] Indomethacin (1 μM), a cyclooxygenase inhibitor, was added to the Krebs buffer and was present throughout the experiments. Contractile tensions were measured using an isometric force transducer (Grass Instruments) and signals were analyzed using specialized software (Chart v5.5, ADInstruments). The preparations were allowed to equilibrate at a resting tension of 0.3 to 0.5 gm prior to two challenges with 60 mM KCl to assess tissue viability. After washing, tissues were treated with 1 μM carbachol for 10 to 15 minutes to induce a contractile response. Test Compounds were added cumulatively to the bath every 30 minutes and reductions in tension were recorded. Basal tension was subtracted from all values and data were reported as a percentage of the maximal carbachol-induced contraction. Data were fit to the Hill equation using GraphPad Prism v5 software.

As for `CS(=O)(=O)Nc1cccc(CN2CC[C@@H](Nc3cccc4cnccc34)C2)c1` [Compound 2.038], in [1], the “Reduction in airway hyperresponsivness” value is “statistically significant reduction”. For the same compound, the “Prevention of airway hyperreactivity to metacholine on Day 32” value in data set [2] is “prevention of airway hyperreactivity”. Moreover, in the data set with murine eosinophils, the “Eotaxin-induced chemotactic response of murine eosinophils” value is listed as “inhibited”. Also, in the data set with human eosinophils, the “Eotaxin-induced chemotactic response of human eosinophils” value is on record as “inhibited”. Moreover, in data set [3] (setting [5]), the “Eotaxin level in BALF” value is listed as “reduced levels”, the “IL-5 level in BALF” value was “reduced levels” and the “IL-13 level in BALF” value is on record as “reduced levels”. The “Airway eosinophil infiltration (eosinophils per ml of BALF)” value in data set [3] (dosed orally to day 31, anti-inflammatory dosing paradigm) is “reduced”. Also, the “Detection in mouse plasma 15 minutes after oral dosing” value in [4] was “readily detectable”.
In the case of `OCCOc1cccc(CN2CC[C@@H](Nc3cccc4cnccc34)C2)c1` [Compound 2.039], the “Norepinephrine-induced tension of aortal ring” value in the data set with rat aorta is recorded as “fully reversed”.
Turning to `Cc1cncc2cccc(S(=O)(=O)N3CCCNC[C@@H]3C)c12` [Compound H-1152, 4-methyl-5-(2-methyl-[1,4]diazepan-1-sulfonyl)isoquinoline], the IC50 in the data set with rat tracheal rings was 164 nM; with human neutrophils, 4350 nM.
